According to paper PMC12070314, “Efficient Small-Molecule Reversal Agents for Anticoagulant Fondaparinux” (ACS Pharmacology & Translational Science, 2025):

How the values were obtained:
[1] = test system: freshly extracted mouse blood; assay: Naked-eye ex vivo blood coagulation assay; assay type: cell-based; settings: 100 μM fond + 200 μM antidote, 5 min
Procedure: Considering the results obtained in the in vitro assays, we aimed to test our molecules in a more relevant and challenging environment. To this aim, we performed naked-eye ex vivo coagulation assays (Figure ). Freshly extracted mouse blood samples were treated with fond (100 μM final concentration) in the absence and in the presence of different antidotes (two molar equivalents). Blood coagulation was visually inspected by the simple inversion of the vials. For a fair comparison between different series, all of the experiments were done in parallel with the corresponding control samples of untreated mouse blood (labeled “0” in Figure ). […] The effect of antidotes alone on blood coagulation was also tested (Figure B), showing that neither of the three small molecules appreciably changed the coagulation properties.
This naked-eye coagulation test is an adaptation of the whole blood clotting time assay. , Freshly collected mouse blood was directly used without further treatment. 300 μL aliquots were dispensed in Eppendorf tubes, to which fondaparinux (100 μM), and/or potential antidotes (3AC, 3FF, ciraparantag, or protamine, 200 μM) were added, and a picture was taken after 5 min. Clot formation was verified by inverting the Eppendorf vials.

[2] = test system: HMEC-1 cells; assay: Resazurin cell viability assay; assay type: cell-based; settings: for Cell viability (toxicity): HMEC-1, concentrations <100 μM, resazurin
Procedure: (§1) A549 and HeLa cells were maintained in DMEM ([…] glucose, Sigma) containing 10% fetal calf serum (FCS), 2 mM glutamine, 50 U/mL penicillin, and […] streptomycin at 37 °C under a 5% CO2 atmosphere. HMEC-1 and fibroblast cells were maintained in MCDB 131 medium (GIBCO) containing 10% fetal calf serum (FCS), 2 mM glutamine, 50 U/mL penicillin, and […] streptomycin at 37 °C under a 5% CO2 atmosphere.
(§2) The viability of HMEC-1 and fibroblast cells was tested using the resazurin assay. In it, exponentially growing cells were detached from the culture flasks using a trypsin–0.25% EDTA solution, and the cell suspension was seeded onto a 96-well plate (Nunclon) at a concentration of 9k cells/well. Toxicity of 3AC and 3FF was tested as follows: 72 h after seeding, culture medium was discarded and replaced by compound solution in PBS that was diluted with cell culture medium to the final concentration: [3××] = 10 to 100 μM. Resazurin (0.1 mg/mL) was added. After 2 h of incubation, fluorescence was measured (λex = 560 nm // λem = 590 nm) using a spectrophotometric BioTek Synergy 2 Microplate Reader (Agilent). Cell viability is expressed as an emission percent ratio of cells treated with the compound to untreated cells, which were used as a control. The results are the average from three independent experiments. In experiments with fondaparinux, the cells were incubated for 2 h with [fondaparinux] = 100 μM and [3××] = 50/100/200 μM following the same procedure for the rest of the protocol.

[3] = test system: fibroblasts; assay: Resazurin cell viability assay; assay type: cell-based; settings: for Cell viability (toxicity): concentrations <100 μM, resazurin
Procedure: as §1, §2

[4] = Hemolysis assay; assay type: cell-based; settings: freshly isolated mouse erythrocytes, roughly 4-5% suspension, 37 °C
Procedure: Mouse blood (4 mL) was collected in a sodium citrate tube and immediately centrifuged at 1700g for 5 min. The supernatant was removed, and the erythrocytes were washed by adding 2 mL of PBS. It was centrifuged again at 1700g for 5 min. The washing step was repeated twice more. The supernatant was finally removed, and the erythrocytes were diluted in PBS until obtaining a roughly 4–5% suspension. 50 μL of erythrocyte solution was mixed with 50 μL of test compound (3×× at the desired concentration). As a negative control, 50 μL of PBS was used, while 10% Triton X-100 was used as a positive control. The samples were incubated at 37 °C for 60 min. After that, they were centrifuged (1700g for 5 min), and the supernatant was transferred to a 96-well plate. Absorbance was measured at 405 nm. The experiment contained three technical replicates. The results are the average from three independent experiments.

[5] = earlier work of the authors; reference number not given; read-out: Apparent affinity for heparin, K D^app; cited from earlier work

Compound	Reversal of fond anticoagulant effect (clot formation by vial inversion) [1]	Cell viability (toxicity) [2]	Cell viability (toxicity) [3]	hemolysis at 60 min [4]	Kd [5]	Cell toxicity in the presence of fondaparinux ([2]; HMEC-1, 100 μM fondaparinux, 50/100/200 μM compound)	Cell toxicity in the presence of fondaparinux ([3]; 100 μM fondaparinux, 50/100/200 μM compound)
Oc1ccc2ccccc2c1CNCCCNCCCCNCCCNCc1c(O)ccc2ccccc12 [Compound 3FF]	efficiently revert the drug effect	low to acceptable cell toxicity	low to acceptable cell toxicity	< 2%	–	–	–
Oc1ccccc1CNCCCNCCCCNCCCNCc1ccc2c(c1)Cc1ccccc1-2 [Compound 3AC]	efficiently revert the drug effect	low to acceptable cell toxicity	low to acceptable cell toxicity	< 2%	~500 nM	reduced	reduced
